Literature values as cited in US20120093738A1, “TASTE-MASKED ORAL FORMULATIONS OF INFLUENZA ANTIVIRALS” (Rubicon Research Private Limited, priority 2009, published 2012).

Conditions: reconstituted multi-dose suspensions

Structure (SMILES): CCOC(=O)C1=C[C@@H](OC(CC)CC)[C@H](NC(C)=O)[C@@H](N)C1 [oseltamivir phosphate]
- time within which the suspension needs to be used: ≤ 10 days
